Patent US20150080475A1, “Memantine Protects Inflammation-Related Degeneration of Dopamine Neurons Through Inhibition of Over-Activated Microglia and Release of Neurotrophic Factors From Astroglia” (priority 2009, published 2015)

Legend:
[1] = test system: microglia; assay: OX-42 immunostaining of LPS-activated microglia in neuron-glia cultures; type: cell-based; conditions: MMT 3 μM pretreated 30 min, twelve hours after LPS
Method: DA neurons were recognized with the polyclonal antibody against tyrosine hydroxylase (TH) and microglia was detected with the OX-42 antibody against CR3 receptor. Briefly, cells were fixed for 20 min at room temperature in 3.7% formaldehyde diluted in phosphate-buffered saline (PBS). After washing twice with PBS, the cultures were treated with 1% hydrogen peroxide for 10 min. […] To quantify cell numbers, nine representative areas per well in the 24-well plate were counted under the microscope at 100× magnification by two individuals. […]
To provide evidence of anti-inflammatory effect of MMT, the degree of inhibition of LPS-induced activation of microglia was determined by 1) morphological observation after immunostaining of microglia marker (OX-42) and 2) release of pro-inflammatory factors from activated microglia, such as extracelloualr superoxide radicals, intracellular reactive oxygen species (iROS), nitric oxide (NO), PGE2. […]

[2] = test system: TNF-α; assay: TNF-α ELISA after LPS; type: cell-based; conditions: 4 h after LPS treatment
Method: The production of TNF-α was measured with a commercial ELISA kit from R&D Systems. The PGE2 release was measured with a commercial ELISA kit from Cayman Chemical Company.
Neuron-glia cultures were pretreated for 30 min with MMT (3 μM) or vehicle before LPS stimulation. […] Production of superoxide (30 min after LPS) and iROS (2 h after LPS) was decreased by MMT treatment (FIGS. 6A and 6B). […] The production of PGE2 in cultures pretreated with 3 and 10 μM MMT decreased by 23% and 27% respectively (FIG. 6E).

[3] = Glutamate and aspartate concentrations in supernatants of primary neuron-glia cultures; type: cell-based; conditions: vehicle, 10 μM MMT, LPS 5 ng/ml, MMT plus LPS
Method: Primary neuron-glia cultures seeded in 24-well plates at a density of 5×10^5 cells/well for 7 days. Then, the cultures were treated with vehicle, 10 μM MMT, LPS 5 ng/ml, and MMT 10 μM and LPS 5 ng/ml, and supernatants derived from the primary neuron-glia cultures at indicated time points.
To determine the possibility that NMDA receptors might play a role in our mixed neuron/glia cultures in MMT-elicited neuroprotection, this invention determine the concentrations of excitatory amino acid, glutamate and aspartate in the supernatant of cultures after LPS treatment. Several authors reported the release of excitatory amino acid release from microglia by higher concentration of LPS (100 ng/ml). However, the concentration of glutamate released was limited to 10-20 μM, which may not be in sufficient concentrations to produce significant neuronal death (Obrenovitch et al. Excitotoxicity in neurological disorders--the glutamate paradox. Int J Dev Neurosci. 2000; 18:281-7.). In mixed neuron/glia cultures of this invention, with lower concentration of LPS (5 ng/ml) which was toxic to DA neurons, this invention could not detect any increases in both glutamate and aspartate (FIG. 13).

[4] = test system: DA neurons; assay: Neurotrophic effect in neuron-enriched, microglia-added and microglia-depleted cultures (DA uptake); type: cell-based, rat
Method: Astrocytes, not micrglia, contribute to the neurotrophic effect of MMT. Neuron-enriched cultures were treated with vehicle and 1-10 μM MMT (FIG. 10A); 10% (5×10^4/well) of microglia were added back to neuron-enriched cultures and treated with 10 μM MMT (FIG. 10B); Depleted microglia cultures were treated with 10 μM MMT (FIG. 10C). ┌^3H┘ DA uptake was assayed 7 days after treatment. Values are mean±SEM of three independent experiments. *p<0.05, compared with corresponding vehicle-treated control cultures.
In addition to neuroprotection against LPS-induced neurotoxicity, MMT is found to have high potency of neurotrophic effect on DA neurons in rat primary mesencephalic neuron-glia cultures.
Mesencephalic neuron-glia cultures were seeded (5×10^5/well) in 24 well plates precoated with poly D-lysine. Thirty-six hours postseeding, 5-10 μM cytosine β-D-arabinofuranoside was added to the culture. After 2 days, the cytosine β-D-arabinofuranoside was removed and replaced with fresh media. Neuron-enriched cultures are 98% pure, as indicated by ICC staining with OX-42 and GFAP antibodies. Neuron-enriched cultures were treated 7 days post-seeding. For microglia add-back cultures, the microglia were plated on top of the neuron-enriched culture at 6 days postseeding, resulting in the addition of either 10% (500 μL of 1×10^5) or 20% (500 μL of 2×10^5) microglia. Cells were treated 7 days after the initial seeding of the neuron-enriched cultures.

[5] = test system: NMDA receptor; conditions: in vitro; cited from earlier work

CC12CC3CC(C)(C1)CC(N)(C3)C2.Cl [MMT, 1-amino-3,5-dimethyladamantane hydrochloride]
activation of OX-42 stained microglia vs LPS-treated cultures [1]: less activated | release of TNF-α [2]: reduced | aspartate concentration in supernatant [3]: not obviously different | glutamate concentration in supernatant [3]: not obviously different | neurotrophic effect on DA neurons ([4]; 10% of microglia added back to neuron-enriched cultures): not microglia-added cultures | neurotrophic effect on DA neurons ([4]; microglia-depleted neuron/glia culture): neurotrophic in microglia-depleted neuron/glia culture | neurotrophic effect on DA neurons ([4]; neuron-enriched cultures): failed to show any protective effect | concentration of memantine on NMDA receptor blocking [5]: about 10 μM
